Measurements taken from ChEMBL document CHEMBL1201862, “PubChem BioAssay data set” (2004).
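Where inhibition never reached the appropriate level, the endpoint shown equals the highest concentration tested. Otherwise, values were interpolated linearly from a five-concentration, 48-hour dose response in 96-well plates. GI50 is the concentration that inhibits growth by half.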 Activity calls are given as the source filed them. Rule as the data show it: active = GI50 up to about 1.1 µM and inactive = higher.

Legend:
Assay in all cases: NCI tumour cell line growth inhibition, 48 h
A498 = test system: A498
HCC 2998 = test system: HCC 2998
HCT-15 = test system: HCT-15
HL-60 = test system: HL-60
HT-29 = test system: HT-29
K562 = test system: K562
KM12 = test system: KM12
LOX IMVI = test system: LOX IMVI
MCF7 = test system: MCF7
OVCAR-3 = test system: OVCAR-3
SF-268 = test system: SF-268
SK-MEL-28 = test system: SK-MEL-28
SK-MEL-2 = test system: SK-MEL-2
SN12C = test system: SN12C
TK-10 = test system: TK-10
CAKI-1 = test system: CAKI-1
IGROV-1 = test system: IGROV-1
OVCAR-4 = test system: OVCAR-4
OVCAR-8 = test system: OVCAR-8
NCI/ADR-RES = test system: NCI/ADR-RES

| SMILES | GI50 (A498) | GI50 (HCC 2998) | GI50 (HCT-15) | GI50 (HL-60) | GI50 (HT-29) | GI50 (K562) | GI50 (KM12) | GI50 (LOX IMVI) | GI50 (MCF7) | GI50 (OVCAR-3) | GI50 (SF-268) | GI50 (SK-MEL-28) | GI50 (SK-MEL-2) | GI50 (SN12C) | GI50 (TK-10) | GI50 (CAKI-1) | GI50 (IGROV-1) | GI50 (OVCAR-4) | GI50 (OVCAR-8) | GI50 (NCI/ADR-RES) |
| --- | --- | --- | --- | --- | --- | --- | --- | --- | --- | --- | --- | --- | --- | --- | --- | --- | --- | --- | --- | --- |
| CCC(=O)NC(Nc1ccc(O)cc1)(C(F)(F)F)C(F)(F)F | > 100 µM (inactive) | > 100 µM (inactive) | 29.9 µM | 18.5 µM (inactive) | > 100 µM (inactive) | 33.1 µM (inactive) | 62.7 µM (inactive) | 33.6 µM (inactive) | 46.3 µM (inactive) | 40.6 µM (inactive) | > 100 µM (inactive) | > 100 µM (inactive) | 41.6 µM (inactive) | > 100 µM (inactive) | > 100 µM (inactive) | – | – | – | – | – |
| CC(=O)NC1(NC(C)=O)C2CC(C1Cc1ccccc1)C(C)(C)C2C (stereo not drawn) | > 100 µM (inactive) | > 100 µM (inactive) | – | > 100 µM (inactive) | > 100 µM (inactive) | > 100 µM (inactive) | > 100 µM (inactive) | – | > 100 µM (inactive) | > 100 µM (inactive) | > 100 µM (inactive) | > 100 µM (inactive) | – | > 100 µM (inactive) | > 100 µM (inactive) | > 100 µM (inactive) | > 100 µM (inactive) | > 100 µM (inactive) | > 100 µM (inactive) | – |
| COc1ccc(OC)c(C23CCCC(C2)N(C)CC3)c1 (stereo not drawn) | 32.3 µM (inactive) | – | 34 µM | – | 14.9 µM (inactive) | 17 µM (inactive) | 18.4 µM (inactive) | – | 16.6 µM (inactive) | 19.6 µM (inactive) | 44.6 µM (inactive) | – | 21.8 µM (inactive) | 28.2 µM (inactive) | 40.3 µM (inactive) | 46.5 µM (inactive) | – | 24.9 µM (inactive) | – | 60.3 µM (inactive) |
| O=C1NC(=O)C(CC(C(=O)C(=O)Nc2ccccc2Cl)C(=O)c2ccc3ccccc3c2)C(=O)N1 (stereo not drawn) | – | > 100 µM (inactive) | > 100 µM | > 100 µM (inactive) | > 100 µM (inactive) | – | > 100 µM (inactive) | > 100 µM (inactive) | > 100 µM (inactive) | > 100 µM (inactive) | > 100 µM (inactive) | > 100 µM (inactive) | > 100 µM (inactive) | > 100 µM (inactive) | > 100 µM (inactive) | > 100 µM (inactive) | > 100 µM (inactive) | > 100 µM (inactive) | > 100 µM (inactive) | > 100 µM (inactive) |
| Cc1cc(C)n(C(=CC(=O)C(Cl)Cl)n2nc(C)cc2C)n1 | 53.1 µM (inactive) | – | 2.73 µM | 3.32 µM (inactive) | – | 2.17 µM (inactive) | 6.49 µM (inactive) | 1.57 µM (inactive) | 3.94 µM (inactive) | 3.66 µM (inactive) | 6.38 µM (inactive) | – | 3.69 µM (inactive) | – | 3.18 µM (inactive) | 4.94 µM (inactive) | 9.64 µM (inactive) | > 100 µM (inactive) | 2.25 µM (inactive) | 2.65 µM (inactive) |
| CC1(C)C=[N+]([O-])C(C)(C)N1O | – | > 10 µM (inactive) | > 10 µM | > 10 µM (inactive) | > 10 µM (inactive) | > 10 µM (inactive) | > 10 µM (inactive) | – | > 10 µM (inactive) | > 10 µM (inactive) | > 10 µM (inactive) | – | > 10 µM (inactive) | > 10 µM (inactive) | > 10 µM (inactive) | > 10 µM (inactive) | – | > 10 µM (inactive) | > 10 µM (inactive) | > 10 µM (inactive) |
| Nc1nc(Cl)cc(/N=N\c2ccccc2)n1 | 61.5 µM (inactive) | – | 12.5 µM | 6.38 µM (inactive) | 31.3 µM (inactive) | 2.14 µM (inactive) | 92.5 µM (inactive) | 18.5 µM (inactive) | 48.1 µM (inactive) | 11.7 µM (inactive) | 29.5 µM (inactive) | > 100 µM (inactive) | 20.8 µM (inactive) | 43 µM (inactive) | 61.2 µM (inactive) | 37.6 µM (inactive) | 16.6 µM (inactive) | – | 33.2 µM (inactive) | 39.8 µM (inactive) |
| CO/N=C(/C)c1cccc(Nc2nc3ccc(Cl)cc3c3[nH]c4ccccc4c23)c1 | 4.29 µM (inactive) | – | 9.73 µM | 13.2 µM (inactive) | – | 3.13 µM (inactive) | 3.97 µM (inactive) | 11.2 µM (inactive) | 10.3 µM (inactive) | 4.62 µM (inactive) | 13 µM (inactive) | – | 13.2 µM (inactive) | 11 µM (inactive) | – | 10.4 µM (inactive) | 10.6 µM (inactive) | – | 8 µM (inactive) | 14.3 µM (inactive) |
| Cc1ccc(S(=O)(=O)N2CCc3cc(O)c([N+](=O)[O-])cc32)cc1 | > 100 µM (inactive) | – | > 100 µM | > 100 µM (inactive) | – | – | > 100 µM (inactive) | > 100 µM (inactive) | > 100 µM (inactive) | – | > 100 µM (inactive) | > 100 µM (inactive) | > 100 µM (inactive) | > 100 µM (inactive) | > 100 µM (inactive) | > 100 µM (inactive) | > 100 µM (inactive) | > 100 µM (inactive) | > 100 µM (inactive) | > 100 µM (inactive) |
| COc1cc(C2SC(=N)Nc3c2c(C)nn3C(=O)c2ccc(Cl)cc2)cc(OC)c1OC (stereo not drawn) | – | > 10 µM (inactive) | > 10 µM | > 10 µM (inactive) | > 10 µM (inactive) | > 10 µM (inactive) | > 10 µM (inactive) | > 10 µM (inactive) | > 10 µM (inactive) | > 10 µM (inactive) | > 10 µM (inactive) | > 10 µM (inactive) | > 10 µM (inactive) | > 10 µM (inactive) | > 10 µM (inactive) | > 10 µM (inactive) | > 10 µM (inactive) | > 10 µM (inactive) | > 10 µM (inactive) | > 10 µM (inactive) |
| NS(=O)(=O)c1ccc(CNC(=S)NC(=O)Nc2ccc(Cl)c(Cl)c2)cc1 | 16.2 µM (inactive) | – | 16.2 µM | – | 23.2 µM (inactive) | 16.1 µM (inactive) | 19 µM (inactive) | 13.7 µM (inactive) | 19.5 µM (inactive) | – | 21.7 µM (inactive) | 21.6 µM (inactive) | 14.6 µM (inactive) | 17.3 µM (inactive) | 39.5 µM (inactive) | – | 17.9 µM (inactive) | 31.5 µM (inactive) | 20.3 µM (inactive) | 19 µM (inactive) |
| Cc1cccc2c1[nH]c1[nH]c(=O)[nH]c(=O)c12 | > 100 µM (inactive) | – | > 100 µM | > 100 µM (inactive) | > 100 µM (inactive) | > 100 µM (inactive) | > 100 µM (inactive) | > 100 µM (inactive) | > 100 µM (inactive) | 30.7 µM (inactive) | > 100 µM (inactive) | – | > 100 µM (inactive) | > 100 µM (inactive) | > 100 µM (inactive) | > 100 µM (inactive) | > 100 µM (inactive) | > 100 µM (inactive) | > 100 µM (inactive) | > 100 µM (inactive) |
| COc1cc(/C=N/NC(=O)c2c(Cl)c(Cl)c(Cl)c(Cl)c2-c2nc3cc(C(=O)c4ccccc4)ccc3[nH]2)ccc1O | – | – | 15.6 µM | 19.2 µM (inactive) | 40.1 µM (inactive) | 15.8 µM (inactive) | 46.5 µM (inactive) | 50.9 µM (inactive) | 26.5 µM (inactive) | 40 µM (inactive) | 36.9 µM (inactive) | 49.2 µM (inactive) | 39.3 µM (inactive) | 36.5 µM (inactive) | 45.5 µM (inactive) | 62.2 µM (inactive) | 47.6 µM (inactive) | 49.1 µM (inactive) | 59.3 µM (inactive) | 20.9 µM (inactive) |
| O=c1[nH]c(NCc2ccncc2)nc2[nH]cnc12 | – | > 100 µM (inactive) | > 100 µM | – | > 100 µM (inactive) | > 100 µM (inactive) | > 100 µM (inactive) | > 100 µM (inactive) | > 100 µM (inactive) | > 100 µM (inactive) | > 100 µM (inactive) | – | > 100 µM (inactive) | > 100 µM (inactive) | > 100 µM (inactive) | > 100 µM (inactive) | > 100 µM (inactive) | > 100 µM (inactive) | > 100 µM (inactive) | > 100 µM (inactive) |
| COc1nn(Cc2ccccc2F)c2ccc([N+](=O)[O-])cc12 | – | > 100 µM (inactive) | > 100 µM | 4.28 µM (inactive) | > 100 µM (inactive) | 2.91 µM (inactive) | > 100 µM (inactive) | > 100 µM (inactive) | > 100 µM (inactive) | > 100 µM (inactive) | > 100 µM (inactive) | > 100 µM (inactive) | 98.9 µM (inactive) | > 100 µM (inactive) | > 100 µM (inactive) | > 100 µM (inactive) | > 100 µM (inactive) | > 100 µM (inactive) | > 100 µM (inactive) | > 100 µM (inactive) |
| COc1ccc2c(c1OC)OCC(CN(C)C)C2=O (stereo not drawn) | – | 18.7 µM (inactive) | 18.1 µM | 2.54 µM (inactive) | 15.4 µM (inactive) | 3.63 µM (inactive) | 16.5 µM (inactive) | 14.3 µM (inactive) | 8.95 µM (inactive) | 21.5 µM (inactive) | 25.4 µM (inactive) | 17.4 µM (inactive) | 16.7 µM (inactive) | 18.5 µM (inactive) | 16.7 µM (inactive) | 3.01 µM (inactive) | 18.6 µM (inactive) | 22.9 µM (inactive) | 22.1 µM (inactive) | 27.7 µM (inactive) |
| CN(C)c1nc2n(CCO)ccnc-2c(=O)n1 | > 100 µM (inactive) | > 100 µM (inactive) | > 100 µM | – | > 100 µM (inactive) | > 100 µM (inactive) | > 100 µM (inactive) | > 100 µM (inactive) | – | > 100 µM (inactive) | > 100 µM (inactive) | > 100 µM (inactive) | > 100 µM (inactive) | > 100 µM (inactive) | > 100 µM (inactive) | > 100 µM (inactive) | > 100 µM (inactive) | > 100 µM (inactive) | > 100 µM (inactive) | > 100 µM (inactive) |
